Assays:
[1] = laboratory experiments and clinical studies; cited from earlier work
Excerpt: (§1) Fishman et al. reported that in a large review of patients with culture-positive, persistent tympanostomy tube otorrhea, S. aureus accounted for 52% of the organisms cultured, of which 57% were MRSA.[20] Presently, the most commonly used antibiotic against MRSA is vancomycin. […] Although there is no emergence of VRSA in CSOM, new anti-MRSA peptides need to be studied for the prevention of VRSA or VISA. Mandal et al. reported that approximately 15% of MRSA ...

MRSA = assay: Inhibition zone assay; assay type: cell-based, Methicillin-resistant Staphylococcus aureus; settings: 37 °C overnight
Method: MRSA was grown overnight for 18 h at 37 °C in 10 mL of LB broth and then 10 μL of this culture was inoculated into 10 mL of fresh LB and incubated for an additional 3 h at 37 °C to obtain mid-logarithmic phase organisms. The bacterial suspension (2 × 10^5 CFU/mL in LB) was mixed with 0.7% agarose and poured into a 10 cm Petri dish. […] The diameters of the bacterial clearance zones surrounding the circle paper were measured for the quantitation of inhibitory activities.

guinea pigs = settings: guinea pig, in vivo; cited from earlier work
Excerpt: as §1

[2] = paper disc on agarose plate, MRSA, zone size dose-dependent (Fig. 2)

For `CN[C@H](CC(C)C)C(=O)N[C@H]1C(=O)N[C@@H](CC(N)=O)C(=O)N[C@H]2C(=O)N[C@H]3C(=O)N[C@H](C(=O)N[C@H](C(=O)O)c4cc(O)cc(O)c4-c4cc3ccc4O)[C@H](O)c3ccc(c(Cl)c3)Oc3cc2cc(c3O[C@@H]2O[C@H](CO)[C@@H](O)[C@H](O)[C@H]2O[C@H]2C[C@](C)(N)[C@H](O)[C@H](C)O2)Oc2ccc(cc2Cl)[C@H]1O` [vancomycin], the “ototoxicity after vancomycin treatment” value [1] is given as “did not demonstrate significant ototoxicity”.

For KRIVQRIKKWLR-NH2 [KR-12-a2], the “amount from which an inhibition zone against MRSA was produced” value (MRSA; 10 μL aliquots of serial dilution on ≈6 mm paper discs, MRSA 2 × 10^5 CFU/mL in LB with 0.7% agarose) was 6.25 µg, the “amount giving the highest mean diameter of the inhibition zone” value (MRSA; [2]) was 100 µg and the “amount giving the lowest mean diameter of the inhibition zone” value (MRSA; [2]) was 6.25 µg.

For daptomycin, the “ototoxicity after topical application” value (guinea pigs) is listed as “no ototoxicity”.

Source: publication PMC9449155 (Brazilian Journal of Otorhinolaryngology, 2017)
